According to US20250144067A1, “PERSONALIZED STARVATION THERAPY FOR CANCER” (Faeth Therapeutics, Inc., priority 2021, published 2025):
Where a name gives a salt, the structure may show the parent alone.

Tests used:
[1] = test system: NCI-H292 lung cancer cells; assay: FDA drug screening, complete media vs cholesterol-free media without statin (TABLE 1); assay type: cell-based, human
[2] = test system: NCI-H292 lung cancer cells; assay: FDA drug screening, complete media vs cholesterol-free media with simvastatin (TABLE 2); assay type: cell-based, human; conditions: for Cholesterol-free media + simvastatin (0.04 μM) / Complete Media: NCI-H292 cells
[3] = NCI-H292 cells, cholesterol-free media without statin
[4] = complete vs cholesterol-free media; greater than 0 enhanced anti-cancer activity, about 0 neutral, below 0 antagonists
[5] = drug in cholesterol-free media with simvastatin 0.04 μM
[6] = complete media vs cholesterol-free media + simvastatin (0.04 μM), >0 enhanced anti-cancer activity, about 0 neutral, <0 antagonist
[7] = Complete minus Cholesterol-free; >0 enhanced anti-cancer activity, about 0 neutral, <0 antagonist
[8] = NCI-H292 cells, cholesterol-free media without statin, FDA drug library screen
[9] = NCI-H292 cells, complete media, FDA drug library screen
[10] = FDA library drug in cholesterol-free media with simvastatin 0.04 μM
[11] = FDA library drug in complete media
[12] = complete media minus cholesterol-free media + simvastatin, >0 enhanced anti-cancer activity, about 0 neutral, <0 antagonist
[13] = FDA drug library screen, cholesterol-free media with simvastatin 0.04 μM
[14] = FDA drug library screen, complete media
[15] = Complete minus Cholesterol-free; […]
[16] = cholesterol-free media with simvastatin 0.04 μM, FDA drug library screen (TABLE 2)
[17] = complete media, FDA drug library screen (TABLE 2)

Compound | Cholesterol-free [1, 3] | Complete ([1]; NCI-H292 cells, complete media) | Difference [1, 4] | Difference [2, 6] | Difference [1, 7] | Cholesterol-free [1, 8] | Complete [1, 9] | further results
Sitagliptin (phosphate monohydrate) | 1.047 | 0.6455 | −0.40 | −0.17 |  |  |  | Cholesterol-free media + simvastatin (0.04 μM) [2, 5]: 1.13; Complete Media ([2]; drug in complete media): 0.959
CC(C)NC[C@@H](O)COc1ccc(CC(N)=O)cc1 [(R)-(+)-Atenolol] |  |  |  | −0.29 | 0.07 | 0.8467 | 0.9214 | Cholesterol-free media + simvastatin (0.04 μM) [2, 10]: 1.166; Complete Media [2, 11]: 0.872
c1ccc2c(c1)Sc1ccccc1N2CC1CN2CCC1CC2 (centres unmarked) [Mequitazine] | 1.704 | 1.338 | −0.37 |  |  |  |  | Cholesterol-free media + simvastatin (0.04 μM) ([2]; cholesterol-free media with simvastatin 0.04 μM, cell growth value in FDA drug screen): 0.8559; Complete Media ([2]; complete media, cell growth value in FDA drug screen): 0.9842; Difference [2, 12]: 0.13
COc1ccc(CN2CCNCC2)c(OC)c1OC [Trimetazidine (dihydrochloride)] | 1.134 | 0.836 |  | −0.18 | −0.30 |  |  | Cholesterol-free media + simvastatin (0.04 μM) [2, 5]: 1.296; Complete Media ([2]; drug in complete media): 1.112
CNCCC(Oc1ccc(C(F)(F)F)cc1)c1ccccc1 (centres unmarked) [Fluoxetine (hydrochloride)] | 1.383 | 0.9864 | −0.40 |  |  |  |  | Cholesterol-free media + simvastatin (0.04 μM) [2, 13]: 0.8887; Complete Media [2, 14]: 1.043; Difference [2, 12]: 0.15
Cc1cc2c(cc1S(N)(=O)=O)S(=O)(=O)CCC2 [Meticrane] | 1.363 | 1.109 |  | −0.56 | −0.25 |  |  | Cholesterol-free media + simvastatin (0.04 μM) [2, 10]: 1.393; Complete Media [2, 11]: 0.8316
CC(C)[C@]12O[C@H]1[C@@H]1O[C@@]13[C@@]1(C)CCC4=C(COC4=O)[C@@H]1C[C@@H]1O[C@@]13C2=O [Triptonide] |  |  |  |  |  | 0.01808 | 0.005807 | Difference [1, 15]: −0.01; Cholesterol-free media + simvastatin (0.04 μM) [2, 16]: 0.02446; Complete Media [2, 17]: 0.02522; Difference ([2]; complete media minus cholesterol-free media + simvastatin (0.04 μM), […]): 0.00
Cl.Cl.OCCOCCN1CCN(C(c2ccccc2)c2ccccc2)CC1 [Decloxizine (dihydrochloride)] | 1.186 | 0.9687 |  |  |  |  |  | Difference [1, 15]: −0.22; Cholesterol-free media + simvastatin (0.04 μM) ([2]; cholesterol-free media with simvastatin 0.04 μM, […]): 0.9553; Complete Media ([2]; complete media, […]): 1.042; Difference ([2]; complete media minus cholesterol-free media + simvastatin, […]): 0.09
CCOC(=O)[C@H](CCc1ccccc1)N[C@H]1CCc2ccccc2N(CC(=O)O)C1=O [Benazepril (hydrochloride)] | 1.314 | 0.8774 | −0.44 | −0.09 |  |  |  | Cholesterol-free media + simvastatin (0.04 μM) [2, 13]: 1.077; Complete Media [2, 14]: 0.9854
CC(C)OC(=O)C(C)(C)Oc1ccc(C(=O)c2ccc(Cl)cc2)cc1 [Fenofibrate] |  |  |  | −0.24 | −0.06 | 0.8551 | 0.7932 | Cholesterol-free media + simvastatin (0.04 μM) [2, 5]: 1.641; Complete Media ([2]; drug in complete media): 1.401
CN(Cc1cnc2nc(N)nc(N)c2n1)c1ccc(C(=O)N[C@@H](CCC(=O)[O-])C(=O)[O-])cc1.[Na+].[Na+] [Methotrexate (disodium)] |  |  |  |  | −0.05 | 0.06701 | 0.01682 | Cholesterol-free media + simvastatin (0.04 μM) [2, 16]: 0.2727; Complete Media [2, 17]: 0.2318; Difference ([2]; complete media minus cholesterol-free media + simvastatin (0.04 μM), >0 enhanced anti-cancer activity, about 0 neutral, <0 antagonist): −0.04
CC(=O)OCC(=O)[C@@]1(OC(C)=O)[C@@H](C)C[C@H]2[C@@H]3C[C@H](F)C4=CC(=O)C=C[C@]4(C)[C@@]3(F)[C@@H](O)C[C@@]21C [Diflorasone] |  |  |  |  |  |  |  | Difference ([1]; Complete minus Cholesterol-free; greater than 0 enhanced anti-cancer activity, about 0 neutral, below 0 antagonist): −0.10; Cholesterol-free ([1]; NCI-H292 cells, FDA drug library screen, cholesterol-free media without statin): 0.7536; Complete ([1]; NCI-H292 cells, FDA drug library screen, complete media): 0.6518; Cholesterol-free media + simvastatin (0.04 μM) [2, 13]: 0.8775; Difference [2, 12]: 0.30
